The record followed here is EP0236542B1, “Novel organic phosphinic acid compounds” (CYANAMID CANADA INC., priority 1980, dated 1982).

SMILES strings stand for the structures. Like-named read-outs stand apart in the source and are kept apart here.

The series can be described thus: pKa determination in 75% isopropanol. In kind it is physicochemical. As to conditions: product as isolated (assay about 85-88% phosphinic acid).

The pKa is the negative logarithm of the acid dissociation constant. With `CC(CC(C)(C)C)CP(=O)(O)C1CCCCC1` (centres unmarked) [2,4,4 -trimethylpentyl, cyclohexylphosphinic acid], the pKa (read-out: pKa) came to 6.04.

In turn, `CC(CC(C)(C)C)CP(=O)(O)CC(C)CC(C)(C)C` (centres unmarked) [di-2,4,4 -trimethylpentylphosphinic acid] came in with a pKa of 6.03 ± 0.05.
